Patent US20210220374A1, “METHODS OF TREATING TE[…]” (Clarus Therapeutics, Inc., priority 2013, published 2021)

Columns and labels:
[1] = Contingency table classification of C(t) acceptance range as surrogate for Cavg; design: species or system hypogonadal men; details: for Percent of Subjects: Cavg in range & C(t) too high / Percent of Subjects: Cavg in range & C(t) too low / Percent of Subjects: Cavg too high & C(t) in range / Percent of Subjects: Cavg too high & C(t) too high / Percent of Subjects: Cavg too low & C(t) in range / Percent of Subjects: Cavg too low & C(t) too low / Percent of Subjects: C(t) in range / Percent of Subjects: C(t) too high / Percent of Subjects: C(t) too low / Percent of Subjects: Cavg in range & C(t) in range: Cavg 300-1000 ng/dL; for Percent of subjects: Cavg in Range F & C(t) in Range F (total of too high and too low): Cavg 300-1000
Excerpt: For the contingency table approach, the number and percentage of subjects that fell into each of the following seven categories were enumerated, for each of the candidate time points, and for each candidate target range for Cavg, and for each candidate acceptance range for C(t). • 1. Subjects with Cavg within range and with C(t) within range • 2. Subjects with Cavg below range and with C(t) below range • 3. Subjects with Cavg above range and with C(t) above range • 4. Subjects with Cavg within range but with C(t) below range • 5. Subjects with Cavg within range but with C(t) above range • 6. Subjects with Cavg below range, but with C(t) within range • 7. Subjects with Cavg above range, but with C(t) within range
If one defines a value as being “within range” as positive, and being “outside of range” as negative, then Group 1 is subjects that are “true positives”, Groups 2 and 3 are “true negatives”, groups 4 and 5 are “false negatives”, and groups 6 and 7 are “false positives”. Groups, 1, 2 and 3 represent successful predictions because C(t) is an appropriate surrogate for Cavg; Groups 4, 5, 6 and 7 are prediction failures because C(t) is an inaccurate surrogate for Cavg.
Correlations and contingency table calculations were performed using built-in functions in the Excel module of Microsoft Office 2003 (Redmond, Wash.). Graphs were produced using the built-in charting capabilities of Excel.

[2] = Example 3 four-week study of Formulation B (LOT-BB); assay type: in vivo, hypogonadal men
Protocol: The study was designed as an open-label, repeat dose, pharmacokinetic study.
For each subject, the “Day 28” serial PK sampling day was scheduled for Day 32 of the study. […] Doses were administered as capsules, with subjects instructed to take doses 30 minutes after initiation of meals (breakfast and dinner).

[3] = Example 1 single-day pharmacokinetic study of Formulation B; assay type: in vivo, hypogonadal men; details: 200 mg T equivalents BID with food
Protocol: The study was designed as an open-label, single-day dosing, sequential, cross-over, pharmacokinetic study.
The doses were administered as capsules to subjects five minutes after a meal (breakfast for QD, and breakfast and dinner for BID).

[4] = C(6) alternate, C(t) acceptance 250-1700
[5] = targeted Cavg 300-1000 ng/dL, 200 mg T BID as TU

CCCCCCCCCCC(=O)O[C@H]1CC[C@H]2[C@@H]3CCC4=CC(=O)CC[C@]4(C)[C@H]3CC[C@]12C [TU, testosterone undecanoate]
Percent of Subjects: Cavg in range & C(t) too high ([1]; C(5), C(t) acceptance 250-1400): 2.4% | Percent of Subjects: Cavg in range & C(t) too low ([1]; C(5), C(t) acceptance 250-1400): 2.4% | Percent of Subjects: Cavg too high & C(t) in range ([1]; C(5), C(t) acceptance 250-1400): 4.9% | Percent of Subjects: Cavg too high & C(t) too high ([1]; C(5), C(t) acceptance 250-1400): 2.4% | Percent of Subjects: Cavg too low & C(t) in range ([1]; C(5), C(t) acceptance 250-1400): 2.4% | Percent of Subjects: Cavg too low & C(t) too low ([1]; C(5), C(t) acceptance 250-1400): 9.8% | Percent of subjects: Cavg in Range F & C(t) in Range F (total of too high and too low) ([1]; C(5), C(t) acceptance 250-1400): 12.2% | Percent of Subjects: C(t) in range [1, 4]: 90.2% | Percent of Subjects: C(t) too high [1, 4]: 0.0% | Percent of Subjects: C(t) too low [1, 4]: 9.8% | Percent of Subjects: Cavg in range & C(t) in range [1, 4]: 80.5% | Percent of Subjects: Cavg in range & C(t) too high [1, 4]: 0.0% | Percent of Subjects: Cavg in range & C(t) too low [1, 4]: 0.0% | Percent of Subjects: Cavg too high & C(t) in range [1, 4]: 7.3% | Percent of Subjects: Cavg too high & C(t) too high [1, 4]: 0.0% | Percent of Subjects: Cavg too low & C(t) in range [1, 4]: 2.4% | Percent of Subjects: Cavg too low & C(t) too low [1, 4]: 9.8% | Percent of subjects: Cavg in Range F & C(t) in Range F (total of too high and too low) [1, 4]: 9.8% | Percent of Subjects: C(t) in range ([1]; C(6), C(t) acceptance 250-1100): 75.6% | Percent of Subjects: C(t) too high ([1]; C(6), C(t) acceptance 250-1100): 14.6% | Percent of Subjects: C(t) too low ([1]; C(6), C(t) acceptance 250-1100): 9.8% | Percent of Subjects: Cavg in range & C(t) in range ([1]; C(6), C(t) acceptance 250-1100): 73.2% | Percent of Subjects: Cavg in range & C(t) too high ([1]; C(6), C(t) acceptance 250-1100): 7.3% | Percent of Subjects: Cavg in range & C(t) too low ([1]; C(6), C(t) acceptance 250-1100): 0.0% | Percent of Subjects: Cavg too high & C(t) in range ([1]; C(6), C(t) acceptance 250-1100): 0.0% | Percent of Subjects: Cavg too high & C(t) too high ([1]; C(6), C(t) acceptance 250-1100): 7.3% | Percent of Subjects: Cavg too low & C(t) in range ([1]; C(6), C(t) acceptance 250-1100): 2.4% | Percent of Subjects: Cavg too low & C(t) too low ([1]; C(6), C(t) acceptance 250-1100): 9.8% | Percent of subjects: Cavg in Range F & C(t) in Range F (total of too high and too low) ([1]; C(6), C(t) acceptance 250-1100): 17.1% | Percent of Subjects: C(t) in range ([1]; C(8), C(t) acceptance 200-1300): 95.1% | Percent of Subjects: C(t) too high ([1]; C(8), C(t) acceptance 200-1300): 4.9% | Percent of Subjects: C(t) too low ([1]; C(8), C(t) acceptance 200-1300): 0.0% | Percent of Subjects: Cavg in range & C(t) in range ([1]; C(8), C(t) acceptance 200-1300): 80.5% | Percent of Subjects: Cavg in range & C(t) too high ([1]; C(8), C(t) acceptance 200-1300): 0.0% | Percent of Subjects: Cavg in range & C(t) too low ([1]; C(8), C(t) acceptance 200-1300): 0.0% | Percent of Subjects: Cavg too high & C(t) in range ([1]; C(8), C(t) acceptance 200-1300): 2.4% | Percent of Subjects: Cavg too high & C(t) too high ([1]; C(8), C(t) acceptance 200-1300): 4.9% | Percent of Subjects: Cavg too low & C(t) in range ([1]; C(8), C(t) acceptance 200-1300): 12.2% | Percent of Subjects: Cavg too low & C(t) too low ([1]; C(8), C(t) acceptance 200-1300): 0.0% | Percent of subjects: Cavg in Range F & C(t) in Range F (total of too high and too low) ([1]; C(8), C(t) acceptance 200-1300): 4.9% | Percent of Subjects: C(t) in range ([1]; C(12), C(t) acceptance 100-680): 92.7% | Percent of Subjects: C(t) too high ([1]; C(12), C(t) acceptance 100-680): 4.9% | Percent of Subjects: C(t) too low ([1]; C(12), C(t) acceptance 100-680): 2.4% | Percent of Subjects: Cavg in range & C(t) in range ([1]; C(12), C(t) acceptance 100-680): 80.5% | Percent of Subjects: Cavg in range & C(t) too high ([1]; C(12), C(t) acceptance 100-680): 0.0% | Percent of Subjects: Cavg in range & C(t) too low ([1]; C(12), C(t) acceptance 100-680): 0.0% | Percent of Subjects: Cavg too high & C(t) in range ([1]; C(12), C(t) acceptance 100-680): 2.4% | Percent of Subjects: Cavg too high & C(t) too high ([1]; C(12), C(t) acceptance 100-680): 4.9% | Percent of Subjects: Cavg too low & C(t) in range ([1]; C(12), C(t) acceptance 100-680): 9.8% | Percent of Subjects: Cavg too low & C(t) too low ([1]; C(12), C(t) acceptance 100-680): 2.4% | Percent of subjects: Cavg in Range F & C(t) in Range F (total of too high and too low) ([1]; C(12), C(t) acceptance 100-680): 7.3% | Percent of Subjects: Cavg in range [1, 5]: 80.5% | Percent of Subjects: Cavg to low [1, 5]: 12.2% | Percent of Subjects: Cavg too high [1, 5]: 7.3% | Time to T steady-state ([2]; 200 mg T BID as TU): 5 to 7 days | Subjects with Cmax greater than 1500 ng/dL ([2]; 200 mg T BID as TU, 28 days): 13.3% | Subjects with serum T Cavg within the normal range ([2]; 200 mg T BID as TU, 28 days, no dose adjustment): 86.7% | Endogenous serum T baseline concentration, mean ([2]; after 28 days of treatment): 108 ng/dL | Time for DHT concentrations to return to pretreatment levels ([2]; after discontinuing treatment): ≤ 36 h | Time for E2 concentrations to return to pretreatment levels ([2]; after discontinuing treatment): ≤ 36 h | Continued treatment required for maximal suppression of endogenous T production ([2]; in vivo): 5 to 7 days | E2 mean Cavg ([2]; steady state): 0.022 ng/mL | E2 mean Cmin ([2]; steady state): 0.0155 ng/mL | Subjects achieving a serum T Cavg above 300 ng/dL [3]: 75%
